Source: patent publication US12565665B2, “Compositions and methods for controlled mRNA translation and stability” (TRUSTEES OF BOSTON UNIVERSITY, priority 2022, dated 2026)

Experiments:
[1] = test system: Bcl-xL; test: Drug response titration of Bad-BclxL iADAR system using A-1331852; assay type: cell-based, human; conditions: ADAR-Bad-BclxL variant with point mutation F121L, drug added at transfection
[2] = target: AlfaNb; conditions: cited from earlier work
[3] = test system: UAG-MS2 editing reporter; test: Stop codon editing reporter (mCherry / mNeonGreen) co-transfected with ADAR variants, flow cytometry (median mNeonGreen to mCherry); assay type: cell-based, human; conditions: for ADAR activity on mCherry-mNeonGreen reporter, no TEV protease: SpyTag / SpyCatcher ADAR variants
Excerpt: For the reporter system, the inventors used the fluorescent protein-epitope tag tandem fusions of mCherry-FLAG and HA-mNeonGreen as the upstream and downstream coding regions. Without DD editing activity, translation is terminated after mCherry-FLAG. Coexpression with MCP-ADAR2-DD was hypothesized to lead to binding of MCP-DD, stop codon UAG editing to UIG, and expression of mNeonGreen (FIG. 1B).
HEK 293 FT cells were co-transfected with plasmids expressing the reporter containing 2 UAG stop codons in the hairpin and a pcDNA3 construct encoding a fusion protein composed of MCP, ADAR2-DD (E488Q), and TagBFP.
Two days later, fluorescence microscopy images were taken of the cell populations. […] The inventors repeated the experiment and analyzed the samples by flow-cytometry.
The inventors transiently co-transfected HEK 293 FT cells with the mCherry-mNeonGreen reporter, MCP-ADAR2-DD variants containing different configurations of ALFA-tag insertions and NbALFA fusions, and uncaging constructs containing miRFP670 fused to ALFA. Without wishing to be bound by theory, it was hypothesized that the intramolecular interaction would inhibit the ADAR2-DD, but that the ALFA tag on the miRFP670 would displace the lower strength ALFA variants (PE and 78), and perhaps at high enough concentrations displace the intramolecular ALFA, and lead to increased editing.
The inventors then made an ADAR-DD variant with an inserted TEV protease cut site (amino acids ENLYFQG, SEQ ID NO: 286) between the C-terminus of ADAR2-DD and the N-terminus of SpyCatcher (FIG. 5C). The inventors co-transfected HEK 293 FT cells with the reporter construct, the ADAR-DD TEVcs variant, and the TEV protease and 48 hours later analyzed the transfected cells via flow cytometry (FIG. 5D-5E).
Mutated versions were then cloned and co-transfected with an editing reporter in the absence and presence of A-1331852, and absolute background and fold change upon drug addition were determined by flow cytometry (see e.g., FIG. 22d and table 11).

[4] = test system: UAG-MS2 editing reporter; test: Stop codon editing reporter (mCherry / mNeonGreen) co-transfected with ADAR variants, fluorescence microscopy / ImageJ quantification; assay type: cell-based, human; conditions: for ADAR editing of the reporter construct depending on fusion position of BAD / Bcl-xL: 50 ng reporter and 50 ng ADAR construct, with or without A-1331852
[5] = test system: AUA reporter; test: Creation of a START codon (AUA to AUI), EGFPd2/dTomato reporter, flow cytometry; assay type: cell-based, human; conditions: 48 hours post-transfection, n=3
Excerpt: To test this, an ADAR substrate was designed composed of a dsRNA hairpin containing both an AUA-codon with a mismatch at the second adenine to promote specific deamination to AUI (as opposed to IUA or IUI) and an MS2 operator motif (see e.g., FIG. 26b). The design of one large dsRNA hairpin was chosen to promote correct folding of RNA secondary structures. Previous studies have shown that MS2 operators in the 5′UTR of eukaryotic mRNA can lead to decreased translational efficiency when co-expressed with its corresponding coat protein (MS2 coat protein, or MCP), so high and low affinity variants of the MS2 operator (called here MS2-C and MS2-A respectively for the base at the stem loop) were tested with the idea that the lower affinity MS2-A loop would be less likely to inhibit translation by coat protein alone. As positive controls, the same loops were also designed with the correct AUG start codon.
These designs were cloned into pcDNA3 vectors containing a bidirectional CMV promoter driving constitutive dTomato and EGFPd2 (see e.g., FIG. 26c). The S′UTR and start codon of EGFPd2 were replaced with the editable start codon designs so the translational efficiency could be measured by looking at the EGFPd2 fluorescence relative to dTomato when co-expressed with MCP-ADAR. In this construct, if the correct start codon is skipped, the next AUG codon leads to a short, out of frame translation product.
HEK293FT cells were co-transfected with each of the reporter constructs (MS2-C w/ AUG start, MS2-C w/ AUA start, MS2-A w/ AUG start, and MS2-A w/ AUA start) and either filler DNA, inactivated ADAR2-DD (E396A) fused to MCP (MCP-dADAR), or active ADAR2-DD (E488Q) fused to MCP (MCP-ADAR). 48 hours post-transfection, cells were lifted and analyzed by flow cytometry. Transfected cells were gated by dTomato, and the median EGFPd2-to-dTomato ratio for the population was calculated per replicate (n=3) by FLOWJO. 2-Way ANOVA was performed to determine significance.

[6] = test system: GFP-GPI reporter; test: AUA to AUI editing creating upstream in-frame signal sequence and HA tag, live imaging and HA staining; assay type: cell-based, human
Excerpt: To test this, a reporter construct was designed that contained: an MS2-A editable AUA start codon upstream of the murine IgGκ signal sequence and HA epitope tag (SS-HA), an in frame AUG start codon, GFP, and the glycosylphosphatidylinositol (GPI) anchor sequence from Thymocyte differentiation antigen 1 (GPI in diagram) (see e.g., FIG. 27a). With this reporter, in the absence of editing, the majority of the translated product will be from the AUG codon directly upstream of GFP. This will lead to the translation product residing in the cytoplasm with a non-functional GPI anchor (as this post-translational modification (PTM) must occur in the endoplasmic reticulum (ER) lumen). Upon ADAR editing of the upstream AUA to AUI, translation will initiate upstream of the signal sequence, leading to co-translational translocation of HA-GFP-GPI into the ER lumen, the addition of the GPI anchor PTM, and presentation of HA-GFP on the plasma membrane (see e.g., FIG. 27b). With this construct, the editing can be monitored by either by microscopy (looking for ER & plasma membrane localization) or directly by immunostaining for the HA-tag.
HEK cells were co-transfected with the GFP-GPI reporter and either filler DNA, MCP-dADAR, or MCP-ADAR. A GFP-GPI with a functional start codon before the secretion signal was also transfected as a positive control (GFP-GPI Control). One day after transfection, HEK cells were imaged live, and then fixed and stained for HA tag with a primary anti-HA antibody and a secondary antibody that was conjugated to ALEXAFLUOR 647 (AF647).

[7] = test system: editable AUG reporters; test: Destruction of an AUG start codon to IUG, EGFPd2/dTomato reporter, flow cytometry; assay type: cell-based, human; conditions: 48 hours post-transfection; n=3
Excerpt: To test this, an ADAR substrate was designed similar to the substrates tested above, but with an AUG codon in a dsRNA hairpin with a mismatch to promote the deamination of the correct adenine (see e.g., FIG. 28b). This scheme was similarly tested with both the high affinity MS2-C and lower affinity MS2-A variants by cloning these substrates into a pcDNA3 vector with a bidirectional CMV driving the expression of dTomato and EGFPd2 (see e.g., FIG. 28c).
HEK cells were co-transfected with the two different reporter constructs (MS2-C and MS2-A) and cither filler DNA, MCP-dADAR, or MCP-ADAR. 48 hours post-transfection, cells were lifted and analyzed by flow cytometry. Transfected cells were gated by dTomato, and the median EGFPd2-to-dTomato ratio for the population was calculated per replicate (n=3) by FLOWJO. 2-Way ANOVA was performed to determine significance.

Chain of AlfaNb (as listed by the source): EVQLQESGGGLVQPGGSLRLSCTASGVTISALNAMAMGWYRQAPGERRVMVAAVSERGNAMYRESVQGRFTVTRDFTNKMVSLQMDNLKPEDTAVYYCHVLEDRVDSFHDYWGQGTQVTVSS

For `Cc1c(-c2ccc(N3CCc4cccc(C(=O)Nc5nc6ccccc6s5)c4C3)nc2C(=O)O)cnn1CC12CC3CC(CC(C3)C1)C2` [A-1331852], the “concentration at which activation maxed out” value ([1]; flow cytometry 48 hours) was roughly 30 nM and the “concentration at which the iADAR activated (as low as)” value ([1]; flow cytometry 48 hours after transfection, n=3) was 1 nM.

For “ALFA epitope tag, SRLEEELRRRLTE, SEQ ID NO: 85”, the “reported interaction strength with AlfaNb” value [2] is listed as “picomolar”.

For “MCP-linker-ADAR2(E396A & E488Q)-TagBFP [MCP-dADAR]”, the “Fold Change” value ([3]; 1 μM vs 0 μM A-1331852, flow cytometry, n=1) was 0.9649, the “Flow Cytometry Values, 0 μM (median of the ratio of mNeonGreen to mCherry)” value ([3]; HEK cells co-transfected with ADAR reporter and ADAR variant, 0 μM A-1331852, two days after transfection, gated by BFP, n=1) was 0.0049 and the “Flow Cytometry Values, 1 μM (median of the ratio of mNeonGreen to mCherry)” value ([3]; HEK cells co-transfected with ADAR reporter and ADAR variant, 1 μM A-1331852, two days after transfection, gated by BFP, n=1) was 0.0047. For the same molecule, the “mNeonGreen expression, fluorescence microscopy” value ([4]; HEK 293 FT cells co-transfected with reporter containing 2 UAG stop codons in the hairpin, two days after transfection) was “minimal mNeonGreen fluorescence”, the “effect on translational efficiency from a native AUG start codon, MS2-A substrate” value [5] was “more modest negative effect on translational efficiency” and the “relative fluorescence (EGFPd2-to-dTomato) of MS2-C reporters compared with filler DNA (NT)” value ([5]; 2-Way ANOVA) was “significantly decreased the relative fluorescence”. For the same molecule, the “HA tag staining of cells with AUA construct” value ([6]; fixed, permeabilized, anti-HA and AF647 secondary) was “not much staining”, the “cellular distribution of GFP from AUA-SS-GFP-GPI, live imaging” value ([6]; one day after transfection) was “more cytoplasmic distribution” and the “translational efficiency, MS2-A based AUG construct” value [7] was “significant decrease in translational efficiency”.

For “MCP-linker-ADAR2-DDN-SpyTag- ADAR2(E488Q)-DDC-TEVcs-SpyCatcher-TagBFP [ADAR-DD TEVcs variant]”, the “induced ADAR activity with TEV protease” value ([3]; co-transfected TEV protease, flow cytometry 48 hours later) was “close to that of the non-engineered ADAR2-DD” and the “dependence of ADAR activity on TEV protease” value ([3]; co-transfected with or without TEV protease, flow cytometry 48 hours later) was “only active with the addition of TEV protease”.

With “MCP-linker-ADAR2-DDN-SpyTag- ADAR2(E488Q)-DDC-TagBFP -P2A-T2A-SpyCatcher [T2A-SpyCatcher variant]” the “ADAR activity on mCherry-mNeonGreen reporter, no TEV protease” value ([3]; flow cytometry) was “activity was seen”.

In the case of “MCP-linker-ADAR2-DDN-SpyTag- ADAR2(E488Q)-DDC-TagBFP [SpyTag variant]”, the “ADAR activity on mCherry-mNeonGreen reporter, no TEV protease” value ([3]; flow cytometry) was “activity was seen”.

In the case of “MCP-linker-BAD-ADAR2-DD(E488Q)-Bcl-xL-TagBFP [BAD-DD-BclxL]”, the “ADAR editing of the reporter construct depending on fusion position of BAD / Bcl-xL” value (“ADAR editing … of BAD / Bcl-xL” for short) ([4]; HEK cells, two days, n=1) was “drug-dependent allostery”, the “fold change with A-1331852, N-terminal BAD fusion system” value ([4]; HEK cells, absence or presence of A-1331852, two days, n=1) was 5.9 × and the “background in the absence of drug compared with the loop insertion conformation” value ([4]; N-terminal BAD, C-terminal Bcl-xL, n=1) was “significantly higher”.

For “MCP-linker-BAD-ADAR2-DD(E488Q)-TagBFP [BAD-DD]”, the “ADAR editing … of BAD / Bcl-xL” value ([4]; HEK cells, two days, n=1) was “did not affect ADAR editing of the reporter construct”.

For “MCP-linker-BclxL-linker-ADAR2-DDN-Bad(L)-ADAR2(E488Q)-DDC-TagBFP [BclxL-nDD-BAD-cDD]”, the “ADAR editing … of BAD / Bcl-xL” value ([4]; HEK cells, two days, n=1) was “did not inhibit the enzymatic activity”.

For “lower affinity ALFA epitope variant, GRLEEELRRRLSP, SEQ ID NO: 86 [ALFA-PE]”, the “reported interaction strength with AlfaNb” value [2] is given as “nanomolar”.
